# Reference: patent US20110015246A2, “LOFEXIDINE ENANTIOMERS FOR USE AS A TREATMENT FOR CNS DISEASE AND PATHOLOGIES AND ITS CHIRAL SYNTHESIS” (Agean LLC, priority 2006, published 2011)
# What was measured:
# [1] = chills, vomiting, sweating, stomach cramps, diarrhea, muscle pain, runny nose and eyes; cited from earlier work
# [2] = tested on: α2-adrenergic binding sites in rat brain membranes; assay: binding to α2-adrenergic binding sites in rat brain membranes
# [3] = tested on: α1-adrenergic receptors in rat brain membranes; assay: binding to α1-adrenergic receptors in rat brain membranes
# [4] = effect on blood pressure and bradycardiac activity (peripheral side effects); format: in vivo
# pithed normotensive rats = assay: pressor effects after intravenous administration in pithed normotensive rats; format: in vivo, rat
# pithed rat = assay: electrical stimulation-evoked heart rate and diastolic pressure increase in the pithed rat; format: in vivo
# [5] = tested on: brain adrenergic receptors; assay: potency at brain adrenergic receptors involved in opioid detoxification; format: binding
# [6] = tested on: pentobarbitone anesthetized normotensive rats; assay: mean arterial pressure and heart rate after intravenous administration in pentobarbitone anesthetized normotensive rats; format: in vivo, rat
smiles,measurement,setting,value
"CC(Oc1c(Cl)cccc1Cl)C1=NCCN1 (racemic) [Lofexidine, 2-[1-(2,6-dichlorophenoxy)ethyl]-4,5-dihydro-1H-Imidazole]",reducing the symptoms associated with heroin withdrawal,[1],effective
"CC(Oc1c(Cl)cccc1Cl)C1=NCCN1 (single isomer, unassigned; (+)) [(+)-lofexidine, 2-[1-(2,6-dichlorophenoxy)ethyl]-4,5-dihydro-1H-Imidazole]","potency at α2-adrenergic receptors, times less potent than (−)-lofexidine",[2]; (+) vs (−),nine
same,"potency at α1-adrenergic receptors, times less potent than (−)-lofexidine","[3]; rat brain membranes, (+) vs (−)",four
same,peripheral side effects on blood pressure,[4]; compared to (±)-lofexidine,considerably lower
same,bradycardiac activity,[4]; in vivo,practically no effect
same,effect on reducing blood pressure,[4]; in vivo,practically no effect
"CC(Oc1c(Cl)cccc1Cl)C1=NCCN1 (single isomer, unassigned; (-)) [(−)-lofexidine, 2-[1-(2,6-dichlorophenoxy)ethyl]-4,5-dihydro-1H-Imidazole]",affinity for α2-adrenergic binding sites relative to the (+)-enantiomer (times higher),[2]; (−) vs (+),about nine
same,"doses eliciting pressor effects, times lower than (+)-lofexidine",pithed normotensive rats,20 times
same,affinity for α1-adrenergic receptors relative to the (+)-enantiomer (times greater),[3]; (−) vs (+),about four
same,potency in decreasing the increased heart rate evoked by electrical stimulation relative to (+)-lofexidine,pithed rat,thirty
same,impairment of electrical stimulation-induced increase in diastolic pressure,pithed rat; compared with (+)-lofexidine,more effectively unpaired
same,potency at brain adrenergic receptors compared with (+)-lofexidine,[5],more potent
same,effectiveness in decreasing heart rate relative to (+)-lofexidine,[6],twenty
same,effectiveness in decreasing mean arterial pressure relative to (+)-lofexidine,[6],twenty
